Laboratory results from US20180343865A1, “HERBICIDAL COMPOSITIONS COMPRISING ISOXAZOLO[5,4-B]PYRIDINES” (BASF SE, priority 2015, published 2018).

Experiments:
Assay type in all cases: in vivo
Conyza canadiensis = assay: Greenhouse postemergence herbicidal activity on ERICA, 20 DAT; conditions: ERICA, postemergence, 20 DAT
Procedure: (§1) For the post emergence treatment, the plants were first grown to the 2 leaf station (GS 12) and applied at GS 12-19 depending on the species. The herbicidal compositions were suspended or emulsified in water as distribution medium and sprayed using finely distributing nozzles.
(§2) The plants have been cultivated due to their individual requirements at 10 to 25° C. and. 20 to 35° C. The plants were irrigated due to their necessity.
(§3) The respective stated components A), were formulated as a 5% by weight strength emulsion concentrate containing wettol EM 31 20% and Cyclohexanone 80%. The respective stated components B), were formulated as either emulsifiable concentrates (EC), soluble liquids (SL), suspension concentrates (SC) or soluble granules (SG) as indicated in the table below. Component A, component B and the solvent system are introduced into the spray liquor used for applying the active compound. In the examples, the solvent used was water containing 1% Dash (Agnique ME 181 37.5%, Lutensit A-EP 22.5%, and Oleic Acid 5%) and 2% ammonium suflate.
(§4) In the following experiments, the herbicidal activity for the individual herbicide compounds (solo and mixture applications), the herbicidal succession was assessed 20 days after treatment (DAT). The evaluation for the damage on undesired weeds caused by the chemical compositions was carried out using a scale from 0 to 100%, compared to the untreated control plants. Here, 0 means no damage and 100 means complete destruction of the plants. The plants used in the greenhouse experiments belonged to the following species:
(§5) The value E, which corresponds to the effect (in %) that is to be expected if the activity of the individual compounds is additive, was calculated using the method of S. R. Colby (1967) “Calculating synergistic and antagonistic responses of herbicide combinations”, Weeds 15, p. 22 ff. Colby calculation for 2 way mixtures:
(§6) where: • X=effect in percent using herbicide A at an application rate a; • Y=effect in percent using herbicide B at an application rate b; • E=expected effect (in %) of A+B at application rates a+b
(§7) If the value observed in this manner is higher than the value E calculated according to Colby, a synergistic effect is present.

Abutilon theoprasti = assay: Greenhouse postemergence herbicidal activity on ABUTH, 20 DAT; conditions: 20 DAT
Procedure: as §1, §2, §3, §4, §5, §6, §7

Polygonum convolvulus = assay: Greenhouse postemergence herbicidal activity on POLCO, 20 DAT; conditions: POLCO, postemergence, 20 DAT
Procedure: as §1, §2, §3, §4, §5, §6, §7

Polygonum aviculare = assay: Greenhouse postemergence herbicidal activity on POLAV, 20 DAT
Procedure: as §1, §2, §3, §4, §5, §6, §7

Sinapis arvensis = assay: Greenhouse postemergence herbicidal activity on SINAR, 20 DAT; conditions: 50 gai/ha
Procedure: as §1, §2, §3, §4, §5, §6, §7

Stellaria media = assay: Greenhouse postemergence herbicidal activity on STEME, 20 DAT; conditions: STEME, postemergence, 20 DAT
Procedure: as §1, §2, §3, §4, §5, §6, §7

Ambrosia elatior = assay: Greenhouse postemergence herbicidal activity on AMBEL, 20 DAT; conditions: AMBEL, 25 gai/ha, postemergence, 20 DAT
Procedure: as §1, §2, §3, §4, §5, §6, §7

Kochia scoparia = assay: Greenhouse postemergence herbicidal activity on KCHSC, 20 DAT; conditions: 20 DAT
Procedure: as §1, §2, §3, §4, §5, §6, §7

Chenopodium album = assay: Greenhouse postemergence herbicidal activity on CHEAL, 20 DAT; conditions: 20 DAT
Procedure: as §1, §2, §3, §4, §5, §6, §7

Ipomoea hederacea = assay: Greenhouse postemergence herbicidal activity on IPOHE, 20 DAT; conditions: 20 DAT
Procedure: as §1, §2, §3, §4, §5, §6, §7

Polygonum persicaria = assay: Greenhouse postemergence herbicidal activity on POLPE, 20 DAT; conditions: POLPE, postemergence, 20 DAT
Procedure: as §1, §2, §3, §4, §5, §6, §7

Amaranthus retroflexus = assay: Greenhouse postemergence herbicidal activity on AMARE, 20 DAT; conditions: Amaranthus retroflexus, post-emergence, 480 h, AMARE, 31.25 gai/ha, postemergence, 20 DAT; read-out: % activity, solo (I.B)
Procedure: as §1, §2, §3, §4, §5, §6, §7

Amaranthus palmeri = assay: Greenhouse postemergence herbicidal activity on AMAPA, 20 DAT; conditions: Amaranthus palmeri, post-emergence, 480 h, read-out: % activity, solo (I.B)
Procedure: as §1, §2, §3, §4, §5, §6, §7

## O=C(O)COc1ccc(Cl)cc1Cl [2,4-D]
Conyza canadiensis; 25 gai/ha
  % activity, solo 2,4-D: 60%
Conyza canadiensis; 100 gai/ha
  % activity, solo 2,4-D: 75%
Abutilon theoprasti; 25 gai/ha
  % activity, solo 2,4-D: 50%
Abutilon theoprasti; 50 gai/ha
  % activity, solo 2,4-D: 80%
Abutilon theoprasti; 100 gai/ha
  % activity, solo 2,4-D: 90%
Polygonum convolvulus; 25 gai/ha
  % activity, solo 2,4-D: 30%
Polygonum convolvulus; 50 gai/ha
  % activity, solo 2,4-D: 40%
Polygonum convolvulus; 100 gai/ha
  % activity, solo 2,4-D: 70%
Polygonum aviculare; 25 gai/ha
  % activity, solo 2,4-D: 10%
Polygonum aviculare; 50 gai/ha
  % activity, solo 2,4-D: 98%
Sinapis arvensis
  % activity, solo 2,4-D: 80%
Stellaria media; 25 gai/ha
  % activity, solo 2,4-D: 0%
Stellaria media; 50 gai/ha
  % activity, solo 2,4-D: 0%
Stellaria media; 100 gai/ha
  % activity, solo 2,4-D: 30%
Ambrosia elatior
  % activity, solo 2,4-D: 45%
Kochia scoparia; 25 gai/ha
  % activity, solo 2,4-D: 90%
Chenopodium album; 50 gai/ha
  % activity, solo 2,4-D: 90%
Chenopodium album; 100 gai/ha
  % activity, solo 2,4-D: 90%
Ipomoea hederacea; 25 gai/ha
  % activity, solo 2,4-D: 98%
Ipomoea hederacea; 100 gai/ha
  % activity, solo 2,4-D: 98%
Polygonum persicaria; 25 gai/ha
  % activity, solo 2,4-D: 10%
Polygonum persicaria; 50 gai/ha
  % activity, solo 2,4-D: 40%
Polygonum persicaria; 100 gai/ha
  % activity, solo 2,4-D: 70%

## O=C(O)c1cc(C2CC2)nc2onc(-c3ccc(OC(F)F)cc3)c12 [(I.B)]
Amaranthus retroflexus
  inhibition at 31.25 g/ha: 89%
Abutilon theoprasti; Abutilon, post-emergence, 480 h, 31.25 gai/ha, read-out: % activity, solo (I.B)
  inhibition at 31.25 g/ha: 70%
Abutilon theoprasti; Abutilon, post-emergence, 480 h, 62.5 gai/ha, read-out: % activity, solo (I.B)
  inhibition at 62.5 g/ha: 75%
Abutilon theoprasti; Abutilon, post-emergence, 480 h, 125 gai/ha, read-out: % activity, solo (I.B)
  inhibition at 125 g/ha: 73%
Amaranthus palmeri; 15.6 gai/ha
  inhibition at 15.6 g/ha: 20%
Amaranthus palmeri; 31.25 gai/ha
  inhibition at 31.25 g/ha: 70%
Amaranthus palmeri; 62.5 gai/ha
  inhibition at 62.5 g/ha: 78%
Kochia scoparia; Bassia scoparia, post-emergence, 480 h, 31.25 gai/ha, read-out: % activity, solo (I.B)
  inhibition at 31.25 g/ha: 43%
Chenopodium album; Chenopodium album, post-emergence, 480 h, 31.25 gai/ha, read-out: % activity, solo (I.B)
  inhibition at 31.25 g/ha: 53%
